Data: ChEMBL document CHEMBL4261526 (Medchemcomm, 2017)
pIC50: −log10 of the molar value.

Key:
in vitro [1] = details: human, HepG2 cells
Description: Cytotoxicity against human HepG2 cells assessed as cell viability at 100 uM by MTT assay relative to control

Acetylcholinesterase [2] = biological target: T1, Acetylcholinesterase (Homo sapiens, UniProt P22303); assay: Inhibition of recombinant human AChE using acetylthiocholine iodide as substrate preincubated for 20 mins followed by substrate addition and measured for 5 mins by Ellman's assay
in vitro [3] = details: human, HepG2 cells; remark: listed apart in the source
Description: Cytotoxicity against human HepG2 cells assessed as cell viability at 10 uM by MTT assay relative to control

in vitro [4] = details: human, HepG2 cells; remark: listed apart in the source
Description: Cytotoxicity against human HepG2 cells assessed as cell viability at 1 uM by MTT assay relative to control

in vitro [5] = details: human, HepG2 cells; remark: listed apart in the source
Description: Cytotoxicity against human HepG2 cells assessed as cell viability at 300 uM by MTT assay relative to control

Cholinesterase [6] = biological target: T2, Cholinesterase (Homo sapiens, UniProt P06276); assay: Inhibition of human serum BuChE using butyrylthiocholine iodide as substrate preincubated for 20 mins followed by substrate addition and measured for 5 mins by Ellman's assay
T2 sequence (P06276 whole entry): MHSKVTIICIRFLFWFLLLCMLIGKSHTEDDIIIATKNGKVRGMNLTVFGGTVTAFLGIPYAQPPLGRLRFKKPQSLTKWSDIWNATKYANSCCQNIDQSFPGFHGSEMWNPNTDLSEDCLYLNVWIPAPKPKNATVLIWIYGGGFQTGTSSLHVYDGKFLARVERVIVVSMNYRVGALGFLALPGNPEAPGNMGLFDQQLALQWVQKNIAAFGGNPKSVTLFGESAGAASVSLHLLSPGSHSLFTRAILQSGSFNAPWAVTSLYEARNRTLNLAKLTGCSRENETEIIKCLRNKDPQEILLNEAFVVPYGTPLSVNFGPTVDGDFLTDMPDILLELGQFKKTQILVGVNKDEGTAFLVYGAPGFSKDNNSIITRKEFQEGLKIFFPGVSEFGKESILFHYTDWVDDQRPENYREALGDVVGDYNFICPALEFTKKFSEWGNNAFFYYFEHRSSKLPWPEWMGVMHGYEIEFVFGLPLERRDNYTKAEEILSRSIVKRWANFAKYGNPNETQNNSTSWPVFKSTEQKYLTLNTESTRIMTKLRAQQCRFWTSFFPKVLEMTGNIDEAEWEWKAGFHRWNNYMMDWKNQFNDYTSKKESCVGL

Acetylcholinesterase [7] = biological target: T1, Acetylcholinesterase; assay: Potency index, ratio of tacrine IC50 to test compound IC50 for recombinant human AChE
Cholinesterase [8] = biological target: T2, Cholinesterase; assay: Potency index, ratio of tacrine IC50 to test compound IC50 for human serum BuChE
Acetylcholinesterase [9] = biological target: T1, Acetylcholinesterase; assay: Inhibition of recombinant human AChE using acetylthiocholine iodide as substrate preincubated for 30 mins followed by substrate addition and measured for 20 mins by Ellman's assay
Cholinesterase [10] = biological target: T2, Cholinesterase; assay: Inhibition of recombinant human BuChE using butyrylthiocholine as substrate preincubated for 30 mins followed by substrate addition and measured for 20 mins by Ellman's assay
Homo sapiens = species on record: Homo sapiens; assay: Selectivity ratio of IC50 for recombinant human BuChE to IC50 for recombinant human AChE

T1 sequence (P22303 whole entry): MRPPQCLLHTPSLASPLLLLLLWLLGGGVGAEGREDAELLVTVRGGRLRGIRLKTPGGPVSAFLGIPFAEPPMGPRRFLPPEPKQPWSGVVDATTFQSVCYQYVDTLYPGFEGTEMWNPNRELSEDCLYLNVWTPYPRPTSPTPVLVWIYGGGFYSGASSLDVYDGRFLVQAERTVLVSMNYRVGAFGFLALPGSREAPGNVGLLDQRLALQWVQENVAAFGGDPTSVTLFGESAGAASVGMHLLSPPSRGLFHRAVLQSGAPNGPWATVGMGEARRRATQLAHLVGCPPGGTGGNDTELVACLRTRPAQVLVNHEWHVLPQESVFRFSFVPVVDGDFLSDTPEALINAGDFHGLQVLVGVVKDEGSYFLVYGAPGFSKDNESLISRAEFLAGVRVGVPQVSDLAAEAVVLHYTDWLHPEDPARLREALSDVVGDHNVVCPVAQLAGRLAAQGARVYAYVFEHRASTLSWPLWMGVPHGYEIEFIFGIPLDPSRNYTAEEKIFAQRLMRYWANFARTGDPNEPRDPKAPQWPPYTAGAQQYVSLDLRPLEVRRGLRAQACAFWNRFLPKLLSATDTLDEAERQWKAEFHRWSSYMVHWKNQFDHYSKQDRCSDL

**Q.** Which viability at 100 µM (in vitro [1]) does the source give for Cn1c2nc3ccccc3c-2c(NCCCCNc2c3c(nc4ccccc24)CCCC3)c2ccccc21 here?
**A.** 33.8%

**Q.** What about the pIC50 (Acetylcholinesterase [2]) of the same compound?
**A.** 7.28

**Q.** What about the viability at 10 µM (in vitro [3]) of the same compound?
**A.** 37.2%

**Q.** What about the viability at 1 µM (in vitro [4]) of the same compound?
**A.** 99.5%

**Q.** What about the viability at 300 µM (in vitro [5]) of the same compound?
**A.** 34.8%

**Q.** What about the pIC50 (Cholinesterase [6]) of the same compound?
**A.** 7.66

**Q.** Which results are given for Cn1c2nc3ccccc3c-2c(NCCCCCCCCNc2c3c(nc4ccccc24)CCCC3)c2ccccc21?
**A.** Ratio IC50 (Acetylcholinesterase [7]): 368; viability at 100 µM (in vitro [1]): 38.4%; pIC50 (Acetylcholinesterase [2]): 9.02; viability at 10 µM (in vitro [3]): 41.4%; viability at 1 µM (in vitro [4]): 78.1%; Ratio IC50 (Cholinesterase [8]): 17.4; viability at 300 µM (in vitro [5]): 37.9%; pIC50 (Cholinesterase [6]): 8.64

**Q.** With Cn1c2nc3ccccc3c-2c(NCCCCCCNc2c3c(nc4ccccc24)CCCC3)c2ccccc21 as the compound, how does the viability at 100 µM (in vitro [1]) read?
**A.** 36.2%

**Q.** And the pIC50 (Acetylcholinesterase [2])?
**A.** 8.90

**Q.** And the viability at 10 µM (in vitro [3])?
**A.** 34.9%

**Q.** What about the viability at 1 µM (in vitro [4]) of the same compound?
**A.** 40.9%

**Q.** What about the viability at 300 µM (in vitro [5]) of the same compound?
**A.** 36.5%

**Q.** And the pIC50 (Cholinesterase [6])?
**A.** 8.05

**Q.** With Nc1c2c(nc3cc(Cl)ccc13)C[C@H]1C=C(CCCCn3cc(CO)nn3)C[C@H]2C1 as the compound, how does the pIC50 (Acetylcholinesterase [9]) read?
**A.** 9.37

**Q.** What about the pIC50 (Cholinesterase [10]) of the same compound?
**A.** 6.68

**Q.** What about the Ratio IC50 (Homo sapiens) of the same compound?
**A.** 488
